Data taken from PMC5601738, “Facile total synthesis of lysicamine and the anticancer activities of the Ru^II, Rh^III, Mn^II and Zn^II complexes of lysicamine” (Oncotarget, 2017).

What was measured:
[1] = system: HepG2 cells; assay: Apoptosis assay, Annexin V-FITC/PI flow cytometry; assay type: cell-based, human; details: HepG2, 28.0 μM, 24 h; control […]
[2] = system: apoptosis genes in HepG2 cells; assay: RT-qPCR array, human apoptosis PCR array (PAHS-012Z); assay type: cell-based; details: Hep-G2 cells, 14 μM, 24 h, vs control

## COc1cc2ccnc3c2c(c1OC)-c1ccccc1C3=O.COc1cc2ccnc3c2c(c1OC)-c1ccccc1C3=O.COc1cc2ccnc3c2c(c1OC)-c1ccccc1C3=O.ClC(Cl)Cl.ClC(Cl)Cl.ClC(Cl)Cl.[Mn+2].[O-][Cl+3]([O-])([O-])[O-].[O-][Cl+3]([O-])([O-])[O-] [Complex 3, [Mn(LY)3](ClO4)2·3CHCl3]
[1]
  percentages of cells undergoing apoptosis and necrosis: 35.8%
[2]
  Fold up/down-regulation, ABL1: 1.14
  Fold up/down-regulation, ACTB: -3.23
  Fold up/down-regulation, AIFM1: 1.39
  Fold up/down-regulation, AKT1: -1.50
  Fold up/down-regulation, APAF1: -1.08
  Fold up/down-regulation, B2M: 1.32
  Fold up/down-regulation, BAD: -1.23
  Fold up/down-regulation, BAG1: -3.76
  Fold up/down-regulation, BAG3: 1.12
  Fold up/down-regulation, BAK1: 2.10
  Fold up/down-regulation, BAX: 1.03
  Fold up/down-regulation, BCL2: 1.08
  Fold up/down-regulation, BCL2A1: 15.30
  Fold up/down-regulation, BCL2L1: -1.97
  Fold up/down-regulation, BCL2L2: 1.01
  Fold up/down-regulation, BCL2L10: 1.21
  Fold up/down-regulation, BCL2L11: 2.71
  Fold up/down-regulation, BCL10: 1.24
  Fold up/down-regulation, BFAR: 1.36
  Fold up/down-regulation, BID: -1.24
  Fold up/down-regulation, BIK: 3.02
  Fold up/down-regulation, BIRC2: 1.65
  Fold up/down-regulation, BIRC3: -1.79
  Fold up/down-regulation, BIRC5: -1.29
  Fold up/down-regulation, BIRC6: 1.22
  Fold up/down-regulation, BNIP2: 1.48
  Fold up/down-regulation, BNIP3: 1.82
  Fold up/down-regulation, BNIP3L: 2.06
  Fold up/down-regulation, BRAF: 1.10
  Fold up/down-regulation, CASP1: 1.61
  Fold up/down-regulation, CASP2: -1.21
  Fold up/down-regulation, CASP3: 1.46
  Fold up/down-regulation, CASP4: 1.39
  Fold up/down-regulation, CASP5: 1.47
  Fold up/down-regulation, CASP6: 1.46
  Fold up/down-regulation, CASP7: 1.23
  Fold up/down-regulation, CASP8: 1.13
  Fold up/down-regulation, CASP9: 3.47
  Fold up/down-regulation, CASP10: -1.45
  Fold up/down-regulation, CASP14: 8.51
  Fold up/down-regulation, CD27: 4.42
  Fold up/down-regulation, CD40: -1.09
  Fold up/down-regulation, CD40LG: 1.16
  Fold up/down-regulation, CD70: -1.62
  Fold up/down-regulation, CFLAR: 1.19
  Fold up/down-regulation, CIDEA: 2.51
  Fold up/down-regulation, CIDEB: -1.33
  Fold up/down-regulation, CRADD: 1.01
  Fold up/down-regulation, CYCS: 2.27
  Fold up/down-regulation, DAPK1: -1.22
  Fold up/down-regulation, DFFA: 1.10
  Fold up/down-regulation, DIABLO: 1.68
  Fold up/down-regulation, FADD: 1.24
  Fold up/down-regulation, FAS: -1.45
  Fold up/down-regulation, FASLG: 1.37
  Fold up/down-regulation, GADD45A: 3.98
  Fold up/down-regulation, GAPDH: -1.17
  Fold up/down-regulation, HPRT1: -1.87
  Fold up/down-regulation, HRK: 49.72
  Fold up/down-regulation, IGF1R: -2.51
  Fold up/down-regulation, IL10: 1.11
  Fold up/down-regulation, LTA: -1.40
  Fold up/down-regulation, LTBR: -1.24
  Fold up/down-regulation, MCL1: 2.15
  Fold up/down-regulation, NAIP: -1.05
  Fold up/down-regulation, NFKB1: -1.85
  Fold up/down-regulation, NOD1: -1.30
  Fold up/down-regulation, NOL3: -1.07
  Fold up/down-regulation, PYCARD: 2.80
  Fold up/down-regulation, RIPK2: 1.45
  Fold up/down-regulation, RPLP0: 1.17
  Fold up/down-regulation, TNF: 16.66
  Fold up/down-regulation, TNFRSF1A: -1.06
  Fold up/down-regulation, TNFRSF1B: -1.05
  Fold up/down-regulation, TNFRSF9: 110.29
  Fold up/down-regulation, TNFRSF10A: -1.02
  Fold up/down-regulation, TNFRSF10B: 1.11
  Fold up/down-regulation, TNFRSF11B: 3.22
  Fold up/down-regulation, TNFRSF21: 3.02
  Fold up/down-regulation, TNFRSF25: 2.68
  Fold up/down-regulation, TNFSF8: 3.25
  Fold up/down-regulation, TNFSF10: 1.70
  Fold up/down-regulation, TP53: -1.05
  Fold up/down-regulation, TP53BP2: 1.53
  Fold up/down-regulation, TP73: 1.38
  Fold up/down-regulation, TRADD: 1.11
  Fold up/down-regulation, TRAF2: -1.21
  Fold up/down-regulation, TRAF3: 1.01
  Fold up/down-regulation, XIAP: 1.26
  FoldChange, ABL1 relative expression: 1.14
  FoldChange, ACTB relative expression: 0.31
  FoldChange, AIFM1 relative expression: 1.39
  FoldChange, AKT1 relative expression: 0.67
  FoldChange, APAF1 relative expression: 0.92
  FoldChange, B2M relative expression: 1.32
  FoldChange, BAD relative expression: 0.81
  FoldChange, BAG1 relative expression: 0.27
  FoldChange, BAG3 relative expression: 1.12
  FoldChange, BAK1 relative expression: 2.10
  FoldChange, BAX relative expression: 1.03
  FoldChange, BCL2A1 relative expression: 15.30
  FoldChange, BCL2L1 relative expression: 0.51
  FoldChange, BCL2L2 relative expression: 1.01
  FoldChange, BCL2L10 relative expression: 1.21
  FoldChange, BCL2L11 relative expression: 2.71
  FoldChange, BCL2 relative expression: 1.08
  FoldChange, BCL10 relative expression: 1.24
  FoldChange, BFAR relative expression: 1.36
  FoldChange, BID relative expression: 0.80
  FoldChange, BIK relative expression: 3.02
  FoldChange, BIRC2 relative expression: 1.65
  FoldChange, BIRC3 relative expression: 0.56
  FoldChange, BIRC5 relative expression: 0.77
  FoldChange, BIRC6 relative expression: 1.22
  FoldChange, BNIP2 relative expression: 1.48
  FoldChange, BNIP3L relative expression: 2.06
  FoldChange, BNIP3 relative expression: 1.82
  FoldChange, BRAF relative expression: 1.10
  FoldChange, CASP1 relative expression: 1.61
  FoldChange, CASP2 relative expression: 0.83
  FoldChange, CASP3 relative expression: 1.46
  FoldChange, CASP4 relative expression: 1.39
  FoldChange, CASP5 relative expression: 1.47
  FoldChange, CASP6 relative expression: 1.46
  FoldChange, CASP7 relative expression: 1.23
  FoldChange, CASP8 relative expression: 1.13
  FoldChange, CASP9 relative expression: 3.47
  FoldChange, CASP10 relative expression: 0.69
  FoldChange, CASP14 relative expression: 8.51
  FoldChange, CD27 relative expression: 4.42
  FoldChange, CD40LG relative expression: 1.16
  FoldChange, CD40 relative expression: 0.92
  FoldChange, CD70 relative expression: 0.62
  FoldChange, CFLAR relative expression: 1.19
  FoldChange, CIDEA relative expression: 2.51
  FoldChange, CIDEB relative expression: 0.75
  FoldChange, CRADD relative expression: 1.01
  FoldChange, CYCS relative expression: 2.27
  FoldChange, DAPK1 relative expression: 0.82
  FoldChange, DFFA relative expression: 1.10
  FoldChange, DIABLO relative expression: 1.68
  FoldChange, FADD relative expression: 1.24
  FoldChange, FAS relative expression: 0.69
  FoldChange, FASLG relative expression: 1.37
  FoldChange, GADD45A relative expression: 3.98
  FoldChange, GAPDH relative expression: 0.86
  FoldChange, HPRT1 relative expression: 0.54
  FoldChange, HRK relative expression: 49.72
  FoldChange, IGF1R relative expression: 0.40
  FoldChange, IL10 relative expression: 1.11
  FoldChange, LTA relative expression: 0.71
  FoldChange, LTBR relative expression: 0.81
  FoldChange, MCL1 relative expression: 2.15
  FoldChange, NAIP relative expression: 0.95
  FoldChange, NFKB1 relative expression: 0.54
  FoldChange, NOD1 relative expression: 0.77
  FoldChange, NOL3 relative expression: 0.93
  FoldChange, PYCARD relative expression: 2.80
  FoldChange, RIPK2 relative expression: 1.45
  FoldChange, RPLP0 relative expression: 1.17
  FoldChange, TNF relative expression: 16.66
  FoldChange, TNFRSF1A relative expression: 0.94
  FoldChange, TNFRSF1B relative expression: 0.96
  FoldChange, TNFRSF9 relative expression: 110.29
  FoldChange, TNFRSF10A relative expression: 0.98
  FoldChange, TNFRSF10B relative expression: 1.11
  FoldChange, TNFRSF11B relative expression: 3.22
  FoldChange, TNFRSF21 relative expression: 3.02
  FoldChange, TNFRSF25 relative expression: 2.68
  FoldChange, TNFSF8 relative expression: 3.25
  FoldChange, TNFSF10 relative expression: 1.70
  FoldChange, TP53BP2 relative expression: 1.53
  FoldChange, TP53 relative expression: 0.95
  FoldChange, TP73 relative expression: 1.38
  FoldChange, TRADD relative expression: 1.11
  FoldChange, TRAF2 relative expression: 0.82
  FoldChange, TRAF3 relative expression: 1.01
  FoldChange, XIAP relative expression: 1.26
